In article PMC7892644 (Cancer discovery, 2020):
Where two headings read alike, the source gives them in different places.

Tests used:
[1] = tested on: recombinant SOS1 and recombinant KRAS G12D; experiment: AlphaScreen protein-protein interaction assay, SOS1 and KRAS G12D; type: binding; conditions: KRAS-GDP, result in words
[2] = tested on: recombinant SOS1 and recombinant KRAS G12C; experiment: AlphaScreen protein-protein interaction assay, SOS1 and KRAS G12C; type: binding; conditions: KRAS-GDP, result in words
[3] = tested on: panel of 24 cell lines, including 18 KRAS-mutated cell lines; experiment: 2D proliferation assays across a panel of 24 cell lines; type: cell-based
[4] = tested on: NCI-H520 cells (KRAS wild-type); experiment: 3D proliferation assay, NCI-H520; type: cell-based
[5] = tested on: pERK levels in isogenic NCI-H23 cell lines; experiment: pERK levels in isogenic NCI-H23 cell lines
[6] = tested on: retinal pigment epithelial cells; experiment: Proliferation of retinal pigment epithelial cells; type: cell-based; conditions: Epithelial cell, read-out: IC50, proliferation
[7] = tested on: KRAS G12C-mutated MIA PaCa-2 xenografts; conditions: 12 or 50 mg/kg twice daily; p<0.005 vs vehicle control
[8] = tested on: panel of 24 cell lines, including 18 KRAS-mutated cell lines; experiment: 3D proliferation assays across a panel of 24 cell lines; type: cell-based; conditions: for IC50: read-out: IC50, 3D proliferation
[9] = tested on: pERK levels in A375 melanoma cells (KRAS wild-type, BRAF V600E); experiment: pERK inhibition in A375 cells; type: cell-based; conditions: A375, 1 hour, 2D
[10] = tested on: KRAS Q61K mutant pancreatic PDX model; experiment: KRAS Q61K mutant pancreatic PDX model efficacy; type: in vivo, mice; conditions: BI-3406 50 mg/kg bid, trametinib 0.1 mg/kg bid, 5 days on/2 days off
[11] = tested on: A375 cells (KRAS wild-type, BRAF V600E); experiment: 3D proliferation assay, A375; type: cell-based
[12] = tested on: primary smooth muscle cells; experiment: Proliferation of primary smooth muscle cells; type: cell-based; conditions: read-out: IC50, proliferation
foreskin fibroblasts = experiment: cells; conditions: Fibroblast, read-out: IC50, proliferation

Compound: C=CC(=O)N1CCN(c2ncnc3c(F)c(-c4c(O)cccc4F)c(Cl)cc23)CC1 [ARS-1620]
- inhibition of SOS1 interaction with KRAS G12D [1]: no effect
- inhibition of SOS1 interaction with KRAS G12C [2]: able to interfere

Compound: CNCc1ccccc1-c1csc([C@@H](C)Nc2nc(C)nc3cc(OC)c(OC)cc23)c1 [BAY293]
- activity in 2D proliferation assays [3]: no activity

Compound: COc1cc2nc(C)nc(N[C@H](C)c3cc(N)cc(C(F)(F)F)c3)c2cc1O[C@H]1CCOC1 [BI-3406]
- effect on 3D growth [4]: not appreciably affected
- modulation of pERK ([5]; NCI-H23 cells carrying the G12R variant): No modulation
- inhibition of pERK levels ([5]; NCI-H23 cells carrying the Q61H oncogenic variant): weak inhibition
- reduction of pERK levels ([5]; all KRAS variant isogenic NCI-H23 cell lines, independent of zygosity): ~50%
- IC50 [6]: > 5000 nM
- tumor growth inhibition [7]: prolonged dose-dependent tumor growth inhibition
- IC50 [8]: 9 to 220 nM
- pERK modulation [9]: No pERK modulation
- activity in 2D proliferation assays [3]: no activity
- antitumor efficacy [10]: only weak efficacy
- effect on 3D growth [11]: not appreciably affected
- IC50 [12]: > 5000 nM

Compound: CC1(N)CCN(c2cnc(-c3cccc(Cl)c3Cl)c(N)n2)CC1 [SHP099]
- effect in 3D proliferation ([8]; Q61L/H and G12R KRAS mutant tumor cells): no effects were detectable
- IC50 ([8]; KRAS G12C, a subset of G12D cell lines, and one G12S cell line): 167 to 790 nM
- IC50 ([8]; KRAS G13D and G12V cells): 1180 to 4410 nM
- activity in 2D proliferation assays [3]: no activity

Compound: Cc1[nH]c2ccccc2c1CCNCc1ccc(/C=C/C(=O)NO)cc1 [panobinostat]
- effect on 3D growth [4]: responded
- effect on 3D growth [11]: responded

Compound: CC(=O)Nc1cccc(-n2c(=O)n(C3CC3)c(=O)c3c(Nc4ccc(I)cc4F)n(C)c(=O)c(C)c32)c1 [trametinib]
- IC50 [6]: 12 nM
- IC50 (foreskin fibroblasts): 85 nM
- IC50 [12]: 843 nM
